In ChEMBL document CHEMBL1150885, “Antibacterial activity of lonchocarpol A” (J Nat Prod, 1998):
In brackets after ≈: the same amount, converted by molar mass.

Assays:
Priestia megaterium [1] = test: Inhibition of cell wall synthesis in Bacillus megaterium Mb 410 assessed as [2,6-3H]diaminopimelic incorporation by scintillation counting; type: functional, organism-based
Priestia megaterium [2] = test: Inhibition of protein synthesis in Bacillus megaterium Mb 410 assessed as L-[4,5-3H]leucine incorporation by scintillation counting; type: functional, organism-based
Staphylococcus aureus [3] = test: Antibacterial activity against methicillin-resistant Staphylococcus aureus after 24 hrs by broth microtiter susceptibility assay in absence of mouse plasma; type: functional
Enterococcus faecium [4] = test: Antibacterial activity against vancomycin-resistant Enterococcus faecium after 24 hrs by broth microtiter susceptibility assay in absence of mouse plasma; type: functional
[5] = test system: Mycolicibacterium smegmatis; test: Antibacterial activity against Mycobacterium smegmatis after 24 hrs by broth microtiter susceptibility assay in absence of mouse plasma; type: functional
Priestia megaterium [6] = test: Antibacterial activity against Bacillus megaterium Mb 410 after 24 hrs by broth microtiter susceptibility assay in absence of mouse plasma; type: functional
Staphylococcus aureus [7] = test: Antibacterial activity against methicillin-resistant Staphylococcus aureus after 24 hrs by broth microtiter susceptibility assay in presence of mouse plasma; type: functional
Enterococcus faecium [8] = test: Antibacterial activity against vancomycin-resistant Enterococcus faecium after 24 hrs by broth microtiter susceptibility assay in presence of mouse plasma; type: functional
[9] = test system: Mycolicibacterium smegmatis; test: Antibacterial activity against Mycobacterium smegmatis after 24 hrs by broth microtiter susceptibility assay in presence of mouse plasma; type: functional
L1210 [10] = test: Cytotoxicity against mouse L1210 cells by MTT assay; type: functional, cell-based
L1210 [11] = test: Cytotoxicity against mouse L1210 cells after 24 hrs by trypan blue assay; type: functional, cell-based; details: L1210, 24 h
[12] = Toxicity in defibrinated sheep RBC assessed as minimum lytic concentration causing hemolysis after 2 hrs by liquid microtiter assay; type: cell-based, Ovis aries; details: erythrocyte
Priestia megaterium [13] = test: Inhibition of RNA synthesis in Bacillus megaterium Mb 410 assessed as [5,6-3H]uracil incorporation by scintillation counting; type: functional, organism-based
Priestia megaterium [14] = test: Inhibition of DNA synthesis in Bacillus megaterium Mb 410 assessed as [6-3H]thymidine incorporation by scintillation counting; type: functional, organism-based

SMILES: CC(C)=CCc1c(O)c(CC=C(C)C)c2c(c1O)C(=O)C[C@@H](c1ccc(O)cc1)O2 [LONCHOCARPOL A]
- IC50 (Priestia megaterium [1]): 1.9 µg/mL (≈ 4.65 µM)
- IC50 (Priestia megaterium [2]): 2.5 µg/mL (≈ 6.12 µM)
- MIC (Staphylococcus aureus [3]): 0.78 µg/mL (≈ 1.91 µM)
- MIC (Enterococcus faecium [4]): 0.78 µg/mL (≈ 1.91 µM)
- MIC [5]: > 100 µg/mL
- MIC (Priestia megaterium [6]): 1 µg/mL (≈ 2.45 µM)
- MIC (Staphylococcus aureus [7]): ≥ 100 µg/mL
- MIC (Enterococcus faecium [8]): ≥ 100 µg/mL
- MIC [9]: ≥ 100 µg/mL
- IC50 (L1210 [10]): > 10 µg/mL
- IC50 (L1210 [11]): 10 µg/mL (≈ 24.5 µM)
- Activity [12]: >= 100 ug ml-1
- IC50 (Priestia megaterium [13]): 1.9 µg/mL (≈ 4.65 µM)
- IC50 (Priestia megaterium [14]): 3.9 µg/mL (≈ 9.55 µM)
